Measured values reported in publication PMC3355380, “Back to the Future: Lessons Learned in Modern Target-based and Whole-Cell Lead Optimization of Antimalarials” (Current Topics in Medicinal Chemistry, 2012).
Marks after values point to notes of the source that are not given here.

Legend:
[1] = 2-week rat toxicology study; type: in vivo
[2] = target: QM-PfDHFR (quadruple mutant PfDHFR); design: method as in PMID 20350951; conditions: cited from earlier work
[3] = tested on: Plasmodium berghei; assay: P. berghei murine model; type: in vivo
[4] = target: hDHFR (human DHFR); design: method as in PMID 20350951; conditions: cited from earlier work
[5] = target: WT-PfDHFR (wild type PfDHFR); design: method as in PMID 20350951; conditions: cited from earlier work
[6] = tested on: wild type P. falciparum; design: method as in PMID 20350951; conditions: read-out: EC50 on wild type P. falciparum in vitro; cited from earlier work
[7] = target: hERG (Homo sapiens, UniProt Q12809); assay: hERG binding assay
[8] = tested on: P. falciparum W2; assay: P. falciparum W2 proliferation assay; type: cell-based; conditions: Plasmodium falciparum, imidazolopiperazine hits, mean of two experiments
Text: (§1) We screened both our in-house compound collection (~2.3M compounds) and natural products library (12,000 compounds) using a cell based Plasmodium falciparum proliferation assay. This screen provided data on a large number of chemically diverse anti-malarial compounds. These nearly 5700 hits have been deposited into the public EBI database by GNF/Novartis. A number of these hits originated from kinase-directed libraries and many of which are pan-kinase inhibitors. De-convoluting and eliminating inherent kinase activity with many of these scaffolds while maintaining cellular potency was the first step in the hit-to-lead phase for these particular chemotypes. What follows is a summary of the chemical optimization of some kinase-like and non-kinase scaffolds which came out of the whole-cell screening effort.

[9] = tested on: Huh7; conditions: human
[10] = aqueous solubility; type: physicochemical; conditions: aqueous medium, pH 6.8, aqueous buffer
[11] = tested on: P. falciparum 3D7; assay: P. falciparum 3D7 proliferation assay; type: cell-based, Plasmodium falciparum; conditions: Plasmodium falciparum, 3D7; imidazolopiperazine hits; mean of two experiments; read-out: P. falciparum 3D7 EC50
Text: as §1

[12] = tested on: panel of cytochrome P450 isoforms; assay: in vitro

Chain of hERG (Q12809 whole entry): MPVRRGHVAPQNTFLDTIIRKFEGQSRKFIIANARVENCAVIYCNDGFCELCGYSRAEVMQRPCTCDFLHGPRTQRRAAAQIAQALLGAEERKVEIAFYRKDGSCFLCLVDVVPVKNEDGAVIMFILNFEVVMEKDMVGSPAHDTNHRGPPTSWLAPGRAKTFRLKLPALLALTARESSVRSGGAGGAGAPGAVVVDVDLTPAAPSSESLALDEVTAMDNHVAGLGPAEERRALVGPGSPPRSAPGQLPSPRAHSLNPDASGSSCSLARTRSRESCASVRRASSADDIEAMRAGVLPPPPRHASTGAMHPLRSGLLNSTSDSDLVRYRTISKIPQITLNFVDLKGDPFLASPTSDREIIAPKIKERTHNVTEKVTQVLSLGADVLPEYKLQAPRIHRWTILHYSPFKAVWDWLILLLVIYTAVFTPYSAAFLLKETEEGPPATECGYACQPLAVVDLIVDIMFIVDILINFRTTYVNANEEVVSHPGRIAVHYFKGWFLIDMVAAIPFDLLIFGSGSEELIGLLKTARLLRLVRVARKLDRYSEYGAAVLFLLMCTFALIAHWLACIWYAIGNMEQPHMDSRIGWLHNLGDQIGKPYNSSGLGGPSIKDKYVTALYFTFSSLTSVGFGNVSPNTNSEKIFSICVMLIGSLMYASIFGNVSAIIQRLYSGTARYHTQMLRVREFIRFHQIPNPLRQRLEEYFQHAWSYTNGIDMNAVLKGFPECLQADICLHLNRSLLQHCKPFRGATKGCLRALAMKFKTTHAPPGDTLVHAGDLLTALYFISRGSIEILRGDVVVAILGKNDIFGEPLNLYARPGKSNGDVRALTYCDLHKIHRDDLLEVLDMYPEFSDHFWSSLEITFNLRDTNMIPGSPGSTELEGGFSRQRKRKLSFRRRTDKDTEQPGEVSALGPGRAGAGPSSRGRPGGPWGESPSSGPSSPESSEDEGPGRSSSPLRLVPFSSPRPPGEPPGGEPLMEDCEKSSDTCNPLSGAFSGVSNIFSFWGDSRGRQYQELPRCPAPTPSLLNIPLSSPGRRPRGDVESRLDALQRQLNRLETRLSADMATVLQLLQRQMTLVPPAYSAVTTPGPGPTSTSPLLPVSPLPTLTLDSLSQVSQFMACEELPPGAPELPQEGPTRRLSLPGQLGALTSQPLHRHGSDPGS

SMILES: COc1ccc(OC)c(CNc2ccc3nc(N)nc(N)c3c2Cl)c1 [QN254, 5-Chloro-N'6'-(2 5 di-methoxy-benzyl)-quinazoline-2 4 6-triamine]
- histopathological analysis ([1]; 2-week toxicology study): significant gastrointestinal and bone marrow toxicity
- tolerability ([1]; 2 weeks, repeated oral administration of greater than 50 mg/kg): not tolerated
- Ki [2]: 0.58 ± 0.06 nM
- Cure Rate (%) ([3]; 3 x 30 (mg/kg)): 80%
- Toxicity Rate (%) ([3]; 3 x 30 (mg/kg)): 0%
- Average Survival ([3]; 3 x 30 (mg/kg), control survival 5.6 to 6.2 days): 28.4 days
- Cure Rate (%) ([3]; 3 x 60 (mg/kg)): 60%
- Parasitemia Reduction (%) ([3]; 3 x 60 (mg/kg)): > 99.99%
- Toxicity Rate (%) ([3]; 3 x 60 (mg/kg), mice died around day 10 and were parasite free): 40^b %
- Cure Rate (%) ([3]; 3 x 100 (mg/kg)): 20%
- Parasitemia Reduction (%) ([3]; 3 x 100 (mg/kg)): > 99.99%
- Toxicity Rate (%) ([3]; 3 x 100 (mg/kg), mice died around day 10 and were parasite free): 80^b %
- Parasitemia Reduction (%) ([3]; dosing regimen 3 x 30 (mg/kg), oral, compared to untreated controls): > 99.99%
- Ki [4]: 10.2 ± 0.6 nM
- Ki [5]: 0.39 ± 0.05 nM
- EC50 [6]: 9 nM

SMILES: NCC(=O)N1CCn2c(nc(-c3ccccc3)c2Nc2ccc3c(c2)OCO3)C1 [Compound 18a]
- IC50 [7]: 19000 nM
- EC50 [8]: 97 nM
- Cytotoxicity (µM) Huh7 [9]: > 10 µM
- solubility [10]: > 175 µM
- EC50 [11]: 63 nM
- IC50 [12]: > 10000 nM
